Counter-ions that a name gives are not always drawn.
Molecular target: T1, recombinant human DPP-1 (Cathepsin C) (Homo sapiens, UniProt P53634)
T1 construct: made in house
Experiment: DPP-1 Inhibition Assay (In Vitro)
Type: biochemical
Details: fluorogenic substrate GR-AMC 10 uM, 0.15 nM DPP-1, pH 7.0, room temperature; average value where tested multiple times
Protocol: Test compounds were assessed for DPP-1 (Cathepsin C) inhibitory activity using a fluorogenic substrate, GR-AMC (Glycine-Arginine-amino-4-methylcoumarin, Bachem, 1-1215). The amount of amino-methylcoumarin released is proportional to the DPP-1 activity, and the reaction is monitored kinetically with a Molecular Devices plate reader using black 96-well plates.
All compounds were tested under room temperature conditions. The assay buffer consisted of 50 mM HEPES, pH 7.0, 100 mM NaCl, 2 mM glutathione (GSH), and 0.002% TWEEN 20. GSH and TWEEN 20 were added to the buffer fresh daily. Just prior to use, an in-house preparation of recombinant human DPP-1 (240 μM stock, MW 49.6 kD) was diluted 600-fold in assay buffer containing fresh 2 mM dithiothreitol (DTT) to activate the enzyme, then diluted into assay buffer (without DTT) 133-fold for a DPP-1 working solution of 3 nM. Test compounds were diluted in DMSO for 20× their final assay concentrations.
Additions to a 96-well black Costar 3915 plates were as follows: 90 μL of 11 μM GR-AMC, 5 μL test compound (followed by mixing), and 5 μL 3 nM DPP1 to start the reaction. Fluorescent reactions were monitored kinetically at 360 nm excitation, 440 nm emission on a Molecular Devices Spectramax XPS reader. The Softmax Pro software of the reader determined the initial velocity of the selected data (the first 3-5 minutes of the reaction), and the best linear regression fit of the initial kinetic data. Final assay conditions were 0.15 nM DPP-1, 10 uM GR-AMC, 50 mM HEPES, pH 7.0, 100 mM NaCl, 2 mM GSH, 0.002% TWEEN 20, 1 μM DTT, 5.0% DMSO. Initial velocity rates were plotted vs. test compound concentration by use of a four-parameter logistics equation (nonlinear regression, sigmoidal dose-response (variable slope), with fixed Hill (1.0) using GraphPad Prism® software for determination of DPP-1 IC50. Within-run assay coefficient of variation (CV) was generally <10%; between-run CV<20%.
Representative compounds of the present invention were tested according to the procedure as described above, with results as listed in Table 3, below.

T1 sequence (P53634 25-463): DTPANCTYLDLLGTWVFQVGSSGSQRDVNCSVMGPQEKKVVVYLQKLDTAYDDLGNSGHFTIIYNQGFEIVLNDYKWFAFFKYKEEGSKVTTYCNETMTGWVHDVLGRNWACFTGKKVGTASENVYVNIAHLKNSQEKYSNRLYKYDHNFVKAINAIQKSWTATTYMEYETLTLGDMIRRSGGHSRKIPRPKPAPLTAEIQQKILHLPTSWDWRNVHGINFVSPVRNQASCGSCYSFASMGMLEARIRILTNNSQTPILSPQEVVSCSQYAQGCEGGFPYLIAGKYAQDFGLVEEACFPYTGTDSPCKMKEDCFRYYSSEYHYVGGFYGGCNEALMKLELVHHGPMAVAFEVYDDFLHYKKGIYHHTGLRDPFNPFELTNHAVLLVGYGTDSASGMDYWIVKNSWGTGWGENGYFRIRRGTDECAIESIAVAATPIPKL

Compound: N[C@@H](Cc1cccs1)C(=O)N1CCN(c2nc3ccccc3s2)CC1 [Compound 1]
- IC50: 3500 nM

Compound: N[C@@H](Cc1cccs1)C(=O)N1CCN(c2nc3ccccc3o2)CC1 [Compound 2, (S)-2-amino-1-(4-(benzo[d]oxazol-2-yl)piperazin-1-yl)-3-(thiophen-2-yl)propan-1-one hydrochloride]
- IC50: 1400 nM

Compound: COc1ccc(NC(=O)c2ccc3nc(N4CCN(C(=O)[C@@H](N)Cc5cccs5)CC4)sc3c2)cc1OC [Compound 3, (S)-2-(4-(2-amino-3-(thiophen-2-yl)propanoyl)piperazin-1-yl)-N-(3,4-dimethoxyphenyl)benzo[d]thiazole-6-carboxamide hydrochloride]
- IC50: 170 nM

Compound: CC[C@H](N)C(=O)N1CCN(c2nc3ccc(C(=O)Nc4ccc(OC)c(OC)c4)cc3s2)CC1 [Compound 4, (S)-2-(4-(2-aminobutanoyl)piperazin-1-yl)-N-(3,4-dimethoxyphenyl)benzo[d]thiazole-6-carboxamide hydrochloride]
- IC50: 3000 nM

Compound: N[C@@H](Cc1cccs1)C(=O)N1CCN(c2nc3ccc(Br)cc3s2)CC1 [Compound 5]
- IC50: 1300 nM

Compound: COc1ccc(NC(=O)c2ccc3nc(N4CCN(C(=O)[C@@H](N)Cc5ccco5)CC4)sc3c2)cc1OC [Compound 6]
- IC50: 2100 nM

Compound: Cc1ccc(-c2ccc3nc(N4CCN(C(=O)[C@@H](N)Cc5cccs5)CC4)sc3c2)cc1 [Compound 8]
- IC50: 1100 nM

Compound: N[C@@H](Cc1cccs1)C(=O)N1CCN(c2nc3ccc(-c4ccc(F)c(F)c4)cc3s2)CC1 [Compound 11]
- IC50: 970 nM

Compound: COc1ccc(NC(=O)c2ccc3nc(N4CCN(C(=O)[C@@H](N)Cc5ccsc5)CC4)sc3c2)cc1OC [Compound 12]
- IC50: 5600 nM

Compound: N[C@@H](Cc1cccs1)C(=O)N1CCN(c2nc3ccc(-c4cccnc4)cc3s2)CC1 [Compound 13]
- IC50: 370 nM

Compound: N[C@@H](Cc1cccs1)C(=O)N1CCN(c2nc3ccc(-c4ccc(C(F)(F)F)cc4)cc3s2)CC1 [Compound 14, (S)-2-amino-3-(thiophen-2-yl)-1-(4-(6-(4-(trifluoromethyl)phenyl)benzo[d]thiazol-2-yl)piperazin-1-yl)propan-1-one]
- IC50: 1300 nM

Compound: N[C@@H](Cc1cccs1)C(=O)N1CCN(c2nc3ccc(-c4ccc(O)cc4)cc3s2)CC1 [Compound 15]
- IC50: 220 nM

Compound: N[C@@H](Cc1cccs1)C(=O)N1CCN(c2nc3ccc(-c4ccccc4F)cc3s2)CC1 [Compound 16]
- IC50: 580 nM

Compound: N[C@@H](Cc1cccs1)C(=O)N1CCN(c2nc3ccc(CO)cc3s2)CC1 [Compound 18, (S)-2-amino-1-(4-(6-(hydroxymethyl)benzo[d]thiazol-2-yl)piperazin-1-yl)-3-(thiophen-2-yl)propan-1-one]
- IC50: 760 nM

Compound: N[C@@H](Cc1cccs1)C(=O)N1CCN(c2nc3ccc(C(=O)NC4CCCC4)cc3s2)CC1 [Compound 19, (S)-2-(4-(2-amino-3-(thiophen-2-yl)propanoyl)piperazin-1-yl)-N-cyclopentylbenzo[d]thiazole-6-carboxamide]
- IC50: 870 nM

Compound: N[C@@H](Cc1cccs1)C(=O)N1CCN(c2nc3ccc(C(=O)Nc4ccc(F)cc4)cc3s2)CC1 [Compound 20]
- IC50: 560 nM

Compound: N[C@@H](Cc1cccs1)C(=O)N1CCN(c2nc3ccc(CNC4CCCC4)cc3s2)CC1 [Compound 21, (S)-2-amino-1-(4-(6-((cyclopentylamino)methyl)benzo[d]thiazol-2-yl)piperazin-1-yl)-3-(thiophen-2-yl)propan-1-one]
- IC50: 520 nM

Compound: CCCCNC(=O)c1ccc2nc(N3CCN(C(=O)[C@@H](N)Cc4cccs4)CC3)sc2c1 [Compound 24]
- IC50: 820 nM

Compound: N[C@@H](Cc1cccs1)C(=O)N1CCN(c2nc3ccc(C(=O)O)cc3s2)CC1 [Compound 26]
- IC50: 9600 nM

Compound: CN(C)C(=O)c1ccc2nc(N3CCN(C(=O)[C@@H](N)Cc4cccs4)CC3)sc2c1 [Compound 27]
- IC50: 2200 nM

Compound: CCOc1ccc(NC(=O)c2ccc3nc(N4CCN(C(=O)[C@@H](N)Cc5cccs5)CC4)sc3c2)cc1 [Compound 28]
- IC50: 1200 nM

Compound: CCCNC(=O)c1ccc2nc(N3CCN(C(=O)[C@@H](N)Cc4cccs4)CC3)sc2c1 [Compound 29]
- IC50: 2100 nM

Compound: N[C@@H](Cc1cccs1)C(=O)N1CCN(c2nc3ccc(C(=O)NC4CCCCC4)cc3s2)CC1 [Compound 30]
- IC50: 2300 nM

Compound: COc1cccc(CNC(=O)c2ccc3nc(N4CCN(C(=O)[C@@H](N)Cc5cccs5)CC4)sc3c2)c1 [Compound 31]
- IC50: 1200 nM

Compound: CC[C@H](N)C(=O)NCCNc1nc2ccccc2s1 [Compound 41, (S)-2-amino-N-(2-(benzo[d]thiazol-2-ylamino)ethyl)butanamide hydrochloride]
- IC50: 18000 nM

Compound: C#CC[C@H](N)C(=O)NCCNc1nc2ccccc2s1 [Compound 42]
- IC50: 4700 nM

Compound: CC[C@H](N)C(=O)NCCNc1nc2ccc(OC)cc2s1 [Compound 43, (S)-2-amino-N-(2-(6-methoxybenzo[d]thiazol-2-ylamino)ethyl)butanamide hydrochloride]
- IC50: 12000 nM

Compound: C#CC[C@H](N)C(=O)NCCNc1nc2ccccc2o1 [Compound 44, (S)-2-amino-N-(2-(benzo[d]oxazol-2-ylamino)ethyl)pent-4-ynamide hydrochloride]
- IC50: 3100 nM

Compound: CC[C@H](N)C(=O)NCCNc1nc2ccccc2o1 [Compound 45]
- IC50: ~8000 nM

Compound: N[C@@H](Cc1cccs1)C(=O)NCCNc1nc2ccccc2s1 [Compound 46, (S)-2-amino-N-(2-(benzo[d]thiazol-2-ylamino)ethyl)-3-(thiophen-2-yl)propanamide hydrochloride]
- IC50: 740 nM

Compound: N[C@@H](Cc1cccs1)C(=O)NCCNc1nc2ccccc2o1 [Compound 47]
- IC50: 700 nM

Compound: COc1ccc(NC(=O)c2ccc3nc(NCCN(C)C(=O)[C@@H](N)Cc4cccs4)sc3c2)cc1OC [Compound 48, (S)-2-(2-(2-amino-N-methyl-3-(thiophen-2-yl)propanamido)ethylamino)-N-(3,4-dimethoxyphenyl)benzo[d]thiazole-6-carboxamide]
- IC50: 200 nM

— patent US8481547B2, “Substituted benzothiazole and benzoxazole derivatives useful as inhibitors of DPP-1” (Janssen Pharmaceutica NV, priority 2009, dated 2013)
